Reference: ChEMBL document CHEMBL3217627, “Designing glucokinase activators with reduced hypoglycemia risk: discovery of N,N-dimethyl-5-(2-methyl-6-((5-methylpyrazin-2-yl)-carbamoyl)benzofuran-4-yloxy)pyrimidine-2-carboxamide as a clinical candidate for the treatment of type 2 diabetes mellitus” (Medchemcomm, 2011)
Converted amounts (≈) assume the structure as drawn. The source made the active and inactive calls. No cut-off for these calls is given here.

Assays:
[1] = Selectivity ratio of EC50 for rat glucokinase to EC50 for human glucokinase
Hexokinase-4 [2] = biological target: T1, Hexokinase-4 (Homo sapiens, UniProt P35557)
T1 sequence (P35557 whole entry): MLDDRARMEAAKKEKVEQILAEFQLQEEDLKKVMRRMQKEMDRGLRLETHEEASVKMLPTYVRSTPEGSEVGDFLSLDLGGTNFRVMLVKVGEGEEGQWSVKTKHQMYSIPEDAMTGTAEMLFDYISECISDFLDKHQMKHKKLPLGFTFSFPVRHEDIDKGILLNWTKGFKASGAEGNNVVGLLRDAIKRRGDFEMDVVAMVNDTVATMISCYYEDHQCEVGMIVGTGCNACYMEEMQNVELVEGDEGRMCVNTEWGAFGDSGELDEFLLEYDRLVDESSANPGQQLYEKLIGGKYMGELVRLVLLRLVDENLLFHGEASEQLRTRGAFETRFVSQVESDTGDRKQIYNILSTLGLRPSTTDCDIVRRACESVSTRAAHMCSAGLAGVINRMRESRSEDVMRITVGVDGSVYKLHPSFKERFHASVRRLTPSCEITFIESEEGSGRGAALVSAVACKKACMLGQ
Description: Activation of recombinant human glucokinase assessed as formation of glucose-6-phosphate by G6PDH/NADP coupled assay

Hexokinase-4 [3] = biological target: T2, Hexokinase-4 (Rattus norvegicus, UniProt P17712); test: Activation of rat glucokinase
T2 sequence (P17712 whole entry): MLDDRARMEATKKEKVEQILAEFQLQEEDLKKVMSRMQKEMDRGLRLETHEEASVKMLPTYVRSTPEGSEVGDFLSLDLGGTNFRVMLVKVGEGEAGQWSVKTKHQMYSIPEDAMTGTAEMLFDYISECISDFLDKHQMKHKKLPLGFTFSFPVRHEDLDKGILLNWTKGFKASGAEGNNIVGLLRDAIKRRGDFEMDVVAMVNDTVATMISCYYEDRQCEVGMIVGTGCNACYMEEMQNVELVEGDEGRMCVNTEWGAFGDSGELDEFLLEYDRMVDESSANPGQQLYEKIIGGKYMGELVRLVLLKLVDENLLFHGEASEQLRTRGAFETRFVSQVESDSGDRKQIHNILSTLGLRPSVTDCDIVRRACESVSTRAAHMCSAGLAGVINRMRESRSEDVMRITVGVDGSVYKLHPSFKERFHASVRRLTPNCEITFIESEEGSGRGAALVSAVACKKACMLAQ

[4] = Passive permeability across RRCK cells; type: ADME, cell-based, Canis lupus familiaris, MDCKII-LE; conditions: dog, MDCK; read-out: permeability
[5] = Intrinsic clearance in human liver microsomes; type: ADME; conditions: read-out: CLH
[6] = Kinetic solubility of the compound; type: physicochemical; conditions: read-out: Kinetic_solubility
hERG (KCNH2) = hERG (KCNH2) (Homo sapiens, UniProt Q12809); test: Inhibition of dofetilide binding to human ERG at 10 uM relative to control; conditions: probe dofetilide
Sequence of hERG (KCNH2) (Q12809 whole entry): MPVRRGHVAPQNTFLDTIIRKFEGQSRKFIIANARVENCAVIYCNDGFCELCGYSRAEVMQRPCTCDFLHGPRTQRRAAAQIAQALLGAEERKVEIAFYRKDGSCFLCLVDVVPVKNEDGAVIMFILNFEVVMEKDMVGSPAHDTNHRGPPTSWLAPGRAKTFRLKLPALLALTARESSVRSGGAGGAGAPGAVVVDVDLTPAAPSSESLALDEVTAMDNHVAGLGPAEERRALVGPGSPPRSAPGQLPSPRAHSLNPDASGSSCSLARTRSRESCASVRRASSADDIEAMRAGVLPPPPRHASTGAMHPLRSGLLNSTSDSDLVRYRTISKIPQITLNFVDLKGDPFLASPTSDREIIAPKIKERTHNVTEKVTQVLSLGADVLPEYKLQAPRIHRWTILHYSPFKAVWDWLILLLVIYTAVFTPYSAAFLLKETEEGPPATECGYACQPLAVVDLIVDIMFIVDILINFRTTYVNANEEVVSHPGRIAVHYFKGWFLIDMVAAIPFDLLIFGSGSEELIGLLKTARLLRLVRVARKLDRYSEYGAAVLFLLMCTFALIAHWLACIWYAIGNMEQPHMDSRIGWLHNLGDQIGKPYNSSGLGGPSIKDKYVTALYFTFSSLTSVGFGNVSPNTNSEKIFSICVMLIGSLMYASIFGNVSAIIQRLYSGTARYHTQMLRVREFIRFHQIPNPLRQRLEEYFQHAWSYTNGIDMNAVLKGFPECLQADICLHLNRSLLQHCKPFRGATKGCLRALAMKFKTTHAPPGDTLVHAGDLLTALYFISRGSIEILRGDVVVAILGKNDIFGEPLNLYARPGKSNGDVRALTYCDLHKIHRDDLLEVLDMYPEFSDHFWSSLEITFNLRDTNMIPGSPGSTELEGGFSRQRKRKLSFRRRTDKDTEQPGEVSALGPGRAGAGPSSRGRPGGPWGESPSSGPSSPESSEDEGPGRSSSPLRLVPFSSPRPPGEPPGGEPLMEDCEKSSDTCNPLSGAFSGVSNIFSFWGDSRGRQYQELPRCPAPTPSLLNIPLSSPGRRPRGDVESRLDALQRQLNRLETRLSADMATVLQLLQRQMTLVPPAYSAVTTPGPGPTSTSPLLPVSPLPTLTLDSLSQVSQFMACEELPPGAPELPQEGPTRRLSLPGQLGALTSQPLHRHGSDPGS

[7] = biological target: Voltage-gated inwardly rectifying potassium channel KCNH2 (Homo sapiens, UniProt Q12809); test: Inhibition of dofetilide binding to human ERG
Sequence of Voltage-gated inwardly rectifying potassium channel KCNH2 (Q12809 whole entry): as above

Pancreatic islet [8] = test: Induction of 3 to 5 mM glucose-induced insulin secretion in rat dispersed pancreatic islet static culture at 4 to 12 uM; type: functional
[9] = Volume of distribution at steady state in cynomolgus monkey at 0.5 mg/kg, iv and 3 mg/kg, po; type: ADME, organism-based, Macaca fascicularis; conditions: in vivo, read-out: Vdss
[10] = Drug excretion in Sprague-Dawley rat urine assessed as parent compound level at 1 mg/kg, iv; type: ADME, organism-based; set-up: dose 1 mg/kg, route intravenous; conditions: read-out: Drug excretion
Rattus norvegicus [11] = test: Volume of distribution at steady state in male Sprague-Dawley rat at 1 mg/kg, iv and po; type: ADME, organism-based; set-up: dose 1 mg/kg, route oral; conditions: in vivo
Pancreatic islet [12] = test: Induction of > 22 mM glucose-induced insulin secretion in rat dispersed pancreatic islet static culture at 0.4 to 12 uM; type: functional
[13] = Oral bioavailability in male Sprague-Dawley rat at 1 mg/kg; type: ADME, organism-based; conditions: in vivo
[14] = Clearance in Beagle dog at 0.5 mg/kg, iv and 5 mg/kg, po; type: ADME, organism-based, Canis lupus familiaris; conditions: in vivo
Rattus norvegicus [15] = test: Volume of distribution at steady state in female Sprague-Dawley rat at 1 mg/kg, iv and po; type: ADME, organism-based; set-up: dose 1 mg/kg, route oral; conditions: in vivo
[16] = Drug excretion in bile duct-cannulated rat bile assessed as parent compound level at 5 mg/kg, iv; type: ADME, organism-based; set-up: dose 5 mg/kg, route intravenous; conditions: read-out: Drug excretion
[17] = Oral bioavailability in cynomolgus monkey at 3 mg/kg; type: ADME, organism-based, Macaca fascicularis; conditions: in vivo
[18] = Half life in male Sprague-Dawley rat at 1 mg/kg, iv and po; type: ADME, organism-based; set-up: dose 1 mg/kg, route oral; conditions: in vivo
[19] = Oral bioavailability in Beagle dog at 5 mg/kg; type: ADME, organism-based, Canis lupus familiaris; conditions: in vivo
[20] = Half life in female Sprague-Dawley rat at 1 mg/kg, iv and po; type: ADME, organism-based; set-up: dose 1 mg/kg, route oral; conditions: in vivo
[21] = Half life in Beagle dog at 0.5 mg/kg, iv and 5 mg/kg, po; type: ADME, organism-based, Canis lupus familiaris; conditions: in vivo
Pancreatic islet [22] = test: Induction of 9 to 13 mM glucose-induced insulin secretion in rat dispersed pancreatic islet static culture at 0.4 to 12 uM; type: functional
Pancreatic islet [23] = test: Induction of 3 to 5 mM glucose-induced insulin secretion in rat dispersed pancreatic islet static culture at 0.4 to 1.2 uM; type: functional
[24] = Clearance in cynomolgus monkey at 0.5 mg/kg, iv and 3 mg/kg, po; type: ADME, organism-based, Macaca fascicularis; conditions: in vivo
Rattus norvegicus [25] = test: Antidiabetic activity in po dosed Sprague-Dawley rat assessed as reduction of post-prandial glucose excursion administered for 60 mins followed by glucose challenge measured up to 120 mins by OGTT; type: functional, organism-based
[26] = Volume of distribution at steady state in Beagle dog at 0.5 mg/kg, iv and 5 mg/kg, po; type: ADME, organism-based, Canis lupus familiaris; conditions: in vivo, read-out: Vdss
[27] = Oral bioavailability in female Sprague-Dawley rat at 1 mg/kg; type: ADME, organism-based; conditions: in vivo
[28] = Half life in cynomolgus monkey at 0.5 mg/kg, iv and 3 mg/kg, po; type: ADME, organism-based, Macaca fascicularis; conditions: in vivo

`COc1ccc2nc(NC(=O)[C@H](CC3CCCC3)c3ccc(S(=O)(=O)N4CCN(C)CC4)cc3)sc2n1` gave a Ratio EC50 [1] of less than 4, an EC50 (Hexokinase-4 [2]) of 0.122 µM and an EC50 (Hexokinase-4 [3]) of 0.39 µM.
With `Cc1cc2c(Oc3cnc(C(=O)N(C)C)cn3)cc(C(=O)Nc3cnccn3)cc2o1` the Papp [4] was 300 nm/s, the CLint scaled [5] was 0.9 L/h/kg and the solubility kinetic [6] was 30 µM (≈ 12.6 µg/mL). It also gave an inhibition at 10 µM (hERG (KCNH2)) of 60% and an EC50 (Hexokinase-4 [2]) of 0.391 µM.
`CCc1cnc(NC(=O)c2cc(Oc3cnc(C(=O)N(C)C)cn3)c3cc(C)oc3c2)cn1` showed a Papp [4] of 237 nm/s, a CLint scaled [5] of 0.732 L/h/kg and a solubility kinetic [6] of 117 µM (≈ 52.2 µg/mL). It also gave an EC50 (Hexokinase-4 [2]) of 0.254 µM.
`Cc1cc2c(Oc3cnc(C(=O)N4CC5(COC5)C4)cn3)cc(C(=O)Nc3cnccn3)cc2o1` showed a Papp [4] of 199 nm/s, a CLint scaled [5] of 0.774 L/h/kg and a solubility kinetic [6] of 43 µM (≈ 20.3 µg/mL). For the same molecule, the EC50 (Hexokinase-4 [2]) was 2.17 µM.
Work on `Cc1cc2c(Oc3cnc(C(=O)N(C)C)cn3)cc(C(=O)Nc3cnc(C(F)(F)F)cn3)cc2o1` yielded a Papp [4] of 97 nm/s, a CLint scaled [5] of 0.966 L/h/kg and a solubility kinetic [6] of 6 µM (≈ 2.92 µg/mL). It also gave an inhibition at 10 µM (hERG (KCNH2)) of 18% and an EC50 (Hexokinase-4 [2]) of 0.167 µM.
In the case of `Cc1cnc(NC(=O)c2cc(Oc3ccc(C(=O)N(C)C)nc3)c3cc(C)oc3c2)cn1`, the Papp [4] is reported as 285 nm/s, the CLint scaled [5] is reported as 0.696 L/h/kg and the solubility kinetic [6] is reported as 418 µM (≈ 180 µg/mL). It also gave an inhibition at 10 µM (hERG (KCNH2)) of 5% and an EC50 (Hexokinase-4 [2]) of 0.48 µM.
`Cc1cnc(NC(=O)c2cc(Oc3ccc(C#N)cc3)c3cc(C)oc3c2)cn1` gave an IC50 [7] of 4 µM, a Papp [4] of 15 nm/s and a CLint scaled [5] of 1.74 L/h/kg. For the same molecule, the solubility kinetic [6] was 2 µM (≈ 0.769 µg/mL) and the EC50 (Hexokinase-4 [2]) was 3.06 µM.
`COc1cnc(NC(=O)c2cc(Oc3cnc(C(=O)N(C)C)cn3)c3cc(C)oc3c2)cn1` gave a Papp [4] of 158 nm/s, a CLint scaled [5] of less than 0.48 L/h/kg and a solubility kinetic [6] of 25 µM (≈ 11.2 µg/mL). The inhibition at 10 µM (hERG (KCNH2)) was 6% and the EC50 (Hexokinase-4 [2]) was 0.127 µM.
Work on `COCc1ccc(Oc2cc3[nH]c(-c4ccccn4)nc3cc2[C@H]2CCCN2C(C)=O)cn1` yielded a Ratio EC50 [1] of less than 4, an EC50 (Hexokinase-4 [2]) of 0.088 µM and an EC50 (Hexokinase-4 [3]) of 0.187 µM.
With `CNC(=O)c1cnc(Oc2cc(C(=O)Nc3cnc(C)cn3)cc3oc(C)cc23)cn1` the Papp [4] was 209 nm/s, the CLint scaled [5] was 0.606 L/h/kg and the inhibition at 10 µM (hERG (KCNH2)) was 0%. For the same molecule, the EC50 (Hexokinase-4 [2]) was greater than 5 µM.
`Cc1ccc(Oc2cc(C(=O)Nc3cnc(C)cn3)cc3oc(C)cc23)cc1` showed a Papp [4] of 3 nm/s, a CLint scaled [5] of 2.82 L/h/kg and a solubility kinetic [6] of 18 µM (≈ 6.72 µg/mL). It also gave an EC50 (Hexokinase-4 [2]) of 6.61 µM.
With `Cc1cnc(NC(=O)c2cc(Oc3ccc(S(C)(=O)=O)cc3)c3cc(C)oc3c2)cn1` the IC50 [7] was 22 µM, the Papp [4] was 76 nm/s and the CLint scaled [5] was 0.78 L/h/kg. For the same molecule, the solubility kinetic [6] was 3 µM (≈ 1.31 µg/mL) and the EC50 (Hexokinase-4 [2]) was 0.87 µM.
Work on `Cc1cnc(NC(=O)c2cc(Oc3cnc(C(=O)N4CCCCC4)cn3)c3cc(C)oc3c2)cn1` yielded a Papp [4] of 133 nm/s, a CLint scaled [5] of 1.09 L/h/kg and a solubility kinetic [6] of 24 µM (≈ 11.3 µg/mL). It also gave an inhibition at 10 µM (hERG (KCNH2)) of 5% and an EC50 (Hexokinase-4 [2]) of 0.261 µM.
For `Cc1cnc(NC(=O)c2cc(Oc3ncc(C(=O)N(C)C)cn3)c3cc(C)oc3c2)cn1`, the Papp [4] was 347 nm/s, the CLint scaled [5] was less than 0.48 L/h/kg and the solubility kinetic [6] was 485 µM (≈ 210 µg/mL). It also gave an inhibition at 10 µM (hERG (KCNH2)) of 0% and an EC50 (Hexokinase-4 [2]) greater than 0.02 µM.
In the case of `Cc1cnc(NC(=O)c2cc(Oc3cnc(C(=O)N(C)C)nc3)c3cc(C)oc3c2)cn1` [NERIGLIATIN], the Activity (Pancreatic islet [8]) is reported as “Active”, the Vd [9] is reported as 0.83 L/kg and the CLint scaled [5] is reported as less than 0.48 L/h/kg. For the same molecule, the dose excreted [10] was 0.26%, the Vdss (Rattus norvegicus [11]) was 2.1 L/kg and the Activity (Pancreatic islet [12]) was “inactive”. It also gave a bioavailability [13] of 23%, a clearance [14] of 0.156 L/h/kg and a Vdss (Rattus norvegicus [15]) of 1.1 L/kg. It also gave a solubility kinetic [6] of 463 µM (≈ 200 µg/mL), a dose excreted [16] of 2.3% and a bioavailability [17] of 78%. For the same molecule, the half-life [18] was 4.3 h, the bioavailability [19] was 12% and the half-life [20] was 1.2 h. The half-life [21] was 3.3 h, the Activity (Pancreatic islet [22]) was “Active” and the Activity (Pancreatic islet [23]) was “inactive”. For the same molecule, the clearance [24] was 0.564 L/h/kg, the Activity (Rattus norvegicus [25]) was “Dose-dependent effect” and the Vd [26] was 0.65 L/kg. For the same molecule, the bioavailability [27] was 77% and the half-life [28] was 1.8 h.
With `Cc1cnc(NC(=O)c2cc(Oc3cnc(C(=O)N(C)C)cn3)c3cc(C)oc3c2)cn1` the CLint scaled [5] was less than 0.51 L/h/kg and the solubility kinetic [6] was 176 µM (≈ 76.1 µg/mL).
